Columns and labels:
cancer cell lines = assay: cellular growth of cancer cell lines in vitro; assay type: cell-based; settings: several cancer cell lines in vitro
PI3Kδ = PI3Kδ (Homo sapiens, UniProt O00329); assay: PI3Kδ inhibition in biochemical and cellular assays
tumor xenografts = tumor xenografts engrafted subcutaneously or systemically in mice; assay type: in vivo; settings: xenografts subcutaneous or systemic in mice
[1] = pharmacokinetic properties of different salts in Sprague-Dawley rats after oral administration; assay type: in vivo; settings: male SD rats, single oral 10 mg·kg^−1 (as free base), 0.5% MC, fasted
Description: The oral dosing solution was prepared as follows: […] of a test compound was weighed and dispersed in 10 mL of 0.5% methyl cellulose (MC). The final concentration of the test compound is 1 mg·mL^−1 (Calculated by free freebase).
Male Sprague-Dawley rats (also summarized in Table 27) were housed in solid bottom polypropylene cages with sterilized bedding and receive sterilized diet and sterilized water. The room was controlled and monitored for humidity (targeted mean range 40% to 70%) and temperature (targeted mean range 18° C. to 26° C.) with 10 to 20 air changes/hour. The light cycle was maintained at 12-h light and 12-h dark. Only animals that appeared to be healthy were selected for this study based on overall health, body weight, or other relevant information.
The male Sprague-Dawley rats were fasted overnight with free access to drinking water prior to treatment. On day 1, the animals were weighed and actual dose volume for each animal was calculated using the formula below: […]
Three rats for each group were given a single oral dose of 10 mg·kg^−1. The dosing solutions were freshly prepared prior to dose administration. The actual body weights and actual volume injected were recorded accordingly. Four hours after dosing, the rats were allowed to intake food.
Blood samples (˜150 μL) were collected at different times from the jugular vein catheter into EDTA-K2 coated tubes. Whole blood was processed by centrifugation at 3000 g for 10 min. Plasma samples were collected and kept at −80° C. freezer prior to analysis. The blood sampling time was recorded accordingly.
The dose samples of PO were diluted with MeOH:H2O (4:1, v/v) to achieve the concentration of 2 μg·mL^−1, respectively. Then, 2.5 μL of the diluted samples were added with 47.5 μL blank plasma, and then were handled as the plasma sample procedure. An aliquot of 10 μL of the mixture was injected into the LC-MS/MS system.

[2] = DVS (water sorption) test of fumarate crystal forms; assay type: physicochemical; settings: for water uptake in DVS: humidity increased
Description: DVS testing on fumarate Type A was performed starting from 25° C./70% RH.
DVS test on Type D was started at 25° C./60% RH to avoid any unnecessary form change for the starting form. […] Thus, fumarate Type D was speculated to be stable lower than 60% RH.
DVS testing on fumarate Type F was started at 25° C./80% RH to avoid any unnecessary form change for the starting form.

[3] = solid-state stability tests (HPLC and XRPD after storage for one week); assay type: physicochemical; settings: for HPLC (area %), One week / XRPD form after storage (form change) / difference of HPLC purity after storage: 25° C./60% RH and 40° C./75% RH, one week
Description: Fumarate Type D and Type F were further evaluated by solid-state stability tests under 25° C./60% RH and 40° C./75% RH for one week.
In the experiments, about 15 mg of solids was added into an HPLC vial, which was then sealed with parafilm and pricked with 10 holes. Place the vial under corresponding condition and test the solids by HPLC and XRPD after one week.

[4] = long-term stability, 3-month experiment; assay type: physicochemical

Chain of PI3Kδ (O00329 whole entry, species assumed): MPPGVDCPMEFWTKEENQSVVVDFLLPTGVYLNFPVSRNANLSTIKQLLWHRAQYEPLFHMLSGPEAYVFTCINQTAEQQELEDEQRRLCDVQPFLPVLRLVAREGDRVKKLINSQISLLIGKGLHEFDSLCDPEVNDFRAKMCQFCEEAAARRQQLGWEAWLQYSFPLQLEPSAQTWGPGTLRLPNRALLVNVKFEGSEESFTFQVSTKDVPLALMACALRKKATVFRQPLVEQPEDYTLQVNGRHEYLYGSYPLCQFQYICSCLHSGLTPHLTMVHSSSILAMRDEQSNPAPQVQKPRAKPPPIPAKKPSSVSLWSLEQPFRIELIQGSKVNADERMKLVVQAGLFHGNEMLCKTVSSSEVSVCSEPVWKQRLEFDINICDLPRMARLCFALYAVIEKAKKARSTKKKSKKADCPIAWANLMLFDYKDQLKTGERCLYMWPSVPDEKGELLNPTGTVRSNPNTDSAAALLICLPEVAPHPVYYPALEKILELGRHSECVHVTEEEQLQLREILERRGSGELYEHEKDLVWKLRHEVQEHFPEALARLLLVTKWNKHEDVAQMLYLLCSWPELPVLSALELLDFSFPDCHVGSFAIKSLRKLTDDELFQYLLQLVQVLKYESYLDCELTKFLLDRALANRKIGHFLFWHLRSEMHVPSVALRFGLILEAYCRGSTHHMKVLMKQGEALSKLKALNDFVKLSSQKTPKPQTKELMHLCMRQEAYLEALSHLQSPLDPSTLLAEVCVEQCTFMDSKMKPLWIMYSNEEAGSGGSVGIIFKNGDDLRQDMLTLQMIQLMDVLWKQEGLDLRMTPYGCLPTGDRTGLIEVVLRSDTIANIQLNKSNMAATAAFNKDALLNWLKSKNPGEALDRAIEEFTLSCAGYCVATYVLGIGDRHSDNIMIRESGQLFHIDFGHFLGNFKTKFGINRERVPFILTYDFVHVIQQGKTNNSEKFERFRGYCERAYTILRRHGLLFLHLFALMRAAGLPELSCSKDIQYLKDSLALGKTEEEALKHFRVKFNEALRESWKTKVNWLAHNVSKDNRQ
Chain of PI3Kδ (P27986 whole entry partner, species assumed): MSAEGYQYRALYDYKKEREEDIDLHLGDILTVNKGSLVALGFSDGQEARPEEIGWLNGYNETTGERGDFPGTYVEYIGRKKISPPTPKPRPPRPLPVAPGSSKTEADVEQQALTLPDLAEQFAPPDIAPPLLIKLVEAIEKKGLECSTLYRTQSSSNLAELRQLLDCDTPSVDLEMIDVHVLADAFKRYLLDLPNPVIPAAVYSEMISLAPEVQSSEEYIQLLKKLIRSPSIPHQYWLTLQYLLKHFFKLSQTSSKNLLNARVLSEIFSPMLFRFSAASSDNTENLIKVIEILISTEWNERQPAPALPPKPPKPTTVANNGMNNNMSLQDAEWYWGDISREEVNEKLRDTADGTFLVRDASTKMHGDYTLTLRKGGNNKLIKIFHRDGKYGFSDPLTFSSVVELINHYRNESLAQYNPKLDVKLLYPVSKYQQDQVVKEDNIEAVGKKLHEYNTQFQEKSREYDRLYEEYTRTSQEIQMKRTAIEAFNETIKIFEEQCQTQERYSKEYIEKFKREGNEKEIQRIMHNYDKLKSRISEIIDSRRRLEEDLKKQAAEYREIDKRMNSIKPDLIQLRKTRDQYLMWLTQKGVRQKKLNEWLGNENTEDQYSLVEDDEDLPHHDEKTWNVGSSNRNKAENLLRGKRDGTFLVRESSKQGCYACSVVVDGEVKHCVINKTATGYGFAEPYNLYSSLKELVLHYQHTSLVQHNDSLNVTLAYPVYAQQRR

AUC0-inf [1] [ng·h/mL] | AUC0-t [1] [ng·h/mL] | Cmax [1] [ng/mL] | F % (n = 3) [1] [%] | Kel [1] [h⁻¹] | t1/2 [1] [h] | tmax [1] [h] | HPLC (area %), One week [3] [area %] | XRPD form after storage (form change) [3] | difference of HPLC purity after storage [3] | HPLC Area (%), RRT 1.00 ([3]; 25° C./60% RH for 1 week) [%] | HPLC Area (%), RRT 1.08 ([3]; 25° C./60% RH for 1 week) [%] | HPLC Area (%), RRT 1.13 ([3]; 25° C./60% RH for 1 week) [%] | HPLC Area (%), RRT 1.00 ([3]; 40° C./75% RH for 1 week) [%] | HPLC Area (%), RRT 1.08 ([3]; 40° C./75% RH for 1 week) [%] | HPLC Area (%), RRT 1.13 ([3]; 40° C./75% RH for 1 week) [%] | HPLC (area %), Initial ([3]; Initial) [area %] | HPLC Area (%), RRT 1.00 ([3]; Initial) [%] | HPLC Area (%), RRT 1.13 ([3]; Initial) [%] | Compound | further results
356 | 210 | 48.3 | 13.6 | 0.0687 | 11 | 2.45 | 99.9 | Type D | no obvious difference of HPLC purity | 99.92 | 0.02 | 0.06 | 99.90 | 0.03 | 0.07 | 99.9 | 99.92 | 0.05 | Cc1nc([C@@H](C)c2cc(Cl)c(F)c(C(=O)NCCN3CCN(C)CC3)c2OC(C)C)n2ccnc(N)c12.O=C(O)/C=C/C(=O)O [Fumarate Type D] | XRPD form after storage (form change) ([3]; listed as fumarate Type D): no form change; HPLC Area (%), RRT 1.08 ([3]; Initial): 0.03%; long-term stability [4]: excellent long-term stability; humidity below which the form is speculated to be stable ([2]; from DVS, 25° C.): lower than 60 % RH; mass change in DVS ([2]; started at 25° C./60% RH, 60% to 0% RH, then 0% to 70% RH): ~1.6%
 |  |  |  |  |  |  | 99.9 | Type F | no obvious difference of HPLC purity | 99.88 | 0.02 | 0.05 | 99.91 | 0.03 | 0.06 | 99.9 | 99.95 | 0.05 | Cc1nc([C@@H](C)c2cc(Cl)c(F)c(C(=O)NCCN3CCN(C)CC3)c2OC(C)C)n2ccnc(N)c12.O=C(O)/C=C/C(=O)O [Fumarate Type F] | XRPD form after storage (form change) ([3]; listed as fumarate Type F): no form change; HPLC Area (%), RRT 1.06 ([3]; 25° C./60% RH for 1 week): 0.05%; water uptake in DVS ([2]; started at 25° C./80% RH): ~17%

More lines, now with the values behind:

Compound | AUC0-inf [1] [ng·h/mL] | AUC0-t [1] [ng·h/mL] | Cmax [1] [ng/mL] | F % (n = 3) [1] [%] | Kel [1] [h⁻¹] | t1/2 [1] [h] | tmax [1] [h] | HPLC (area %), One week [3] [area %] | XRPD form after storage (form change) [3] | difference of HPLC purity after storage [3] | HPLC Area (%), RRT 1.00 ([3]; 25° C./60% RH for 1 week) [%] | HPLC Area (%), RRT 1.08 ([3]; 25° C./60% RH for 1 week) [%] | HPLC Area (%), RRT 1.13 ([3]; 25° C./60% RH for 1 week) [%] | HPLC Area (%), RRT 1.00 ([3]; 40° C./75% RH for 1 week) [%] | HPLC Area (%), RRT 1.08 ([3]; 40° C./75% RH for 1 week) [%] | HPLC Area (%), RRT 1.13 ([3]; 40° C./75% RH for 1 week) [%] | HPLC (area %), Initial ([3]; Initial) [area %] | HPLC Area (%), RRT 1.00 ([3]; Initial) [%] | HPLC Area (%), RRT 1.13 ([3]; Initial) [%] | further results
Cc1nc([C@@H](C)c2cc(Cl)c(F)c(C(=O)NCCN3CCN(C)CC3)c2OC(C)C)n2ccnc(N)c12 [Compound A, (S)-3-(1-(8-amino-1-methylimidazo[1,5-a]pyrazin-3-yl)ethyl)-5-chloro-6-fluoro-2-isopropoxy-N-(2-(4-methylpiperazin-1-yl)ethyl)benzamide] |  |  |  |  |  |  |  |  |  |  |  |  |  |  |  |  |  |  |  | inhibition of cellular growth (cancer cell lines): inhibits cellular growth; inhibition of PI3Kδ (PI3Kδ): potent and selective inhibitor; antitumor effects (tumor xenografts): dose-dependent antitumor effects
Cc1nc([C@@H](C)c2cc(Cl)c(F)c(C(=O)NCCN3CCN(C)CC3)c2OC(C)C)n2ccnc(N)c12.Cc1nc([C@@H](C)c2cc(Cl)c(F)c(C(=O)NCCN3CCN(C)CC3)c2OC(C)C)n2ccnc(N)c12.O=C(O)C(O)C(O)C(=O)O.O=C(O)C(O)C(O)C(=O)O.O=C(O)C(O)C(O)C(=O)O [D-Tartarate (acid/base = 1.5:1)] | 147.7 | 54.9 | 14.8 | 3.4 | 0.06 | 12 | 2.7 |  |  |  |  |  |  |  |  |  |  |  |  | 
Cc1nc([C@@H](C)c2cc(Cl)c(F)c(C(=O)NCCN3CCN(C)CC3)c2OC(C)C)n2ccnc(N)c12.O=C(O)/C=C/C(=O)O [Fumarate Type A] |  |  |  |  |  |  |  |  |  |  |  |  |  |  |  |  |  |  |  | water uptake in DVS ([2]; started from 25° C./70% RH): ~21%

Reference: patent publication US20240101564A1, “SALTS OF A PI3Kdelta INHIBITOR, CRYSTALLINE FORMS, METHODS OF PREPARATION, AND USES THEREFORE” (BeiGene Switzerland GmbH, priority 2021, published 2024)
